Molecules are shown by their SMILES.

The values that follow come from patent US20230127326A1, “C3-SUBSTITUTED 1H-PYRAZOLO[4,3-d]PYRIMIDINE COMPOUNDS AS TOLL-LIKE RECEPTOR 7 (TLR7) AGONISTS” (BRISTOL-MYERS SQUIBB COMPANY, priority 2020, published 2023).

One assay concerns CD69. Kind of assay: Induction of CD69 in human whole blood. The assay is classed as cell-based. Conditions: 17 hrs at 37° C., y-axis 100% set to 1 uM of resiquimod, average where assay was performed multiple times, read-out: hWB CD69 EC50. On the procedure:
The induction of Type I interferon (IFN) MX-1 genes and the B-cell activation marker CD69 are downstream events that occur upon activation of the TLR7 pathway. The following is a human whole blood assay that measures their induction in response to a TLR7 agonist.
Heparinized human whole blood was harvested from human subjects and treated with test TLR7 agonist compounds at 1 mM. The blood was diluted with RPMI 1640 media and Echo was used to predot 10 nL per well giving a final concentration of 1 uM (10 nL in 10 uL of blood). After mixing on a shaker for 30 sec, the plates were covered and placed in a 37° C. chamber for o/n=17 hrs. Fixing/lysis buffer was prepared (5×->1× in H2O, warm at 37° C.; Cat #BD 558049) and kept the perm buffer (on ice) for later use.
For surface markers staining (CD69): prepared surface Abs: 0.045 ul hCD14-FITC (ThermoFisher Cat #MHCD1401)+0.6 ul hCD19-ef450 (ThermoFisher Cat #48-0198-42)+1.5 ul hCD69-PE (cat #BD555531)+0.855 ul FACS buffer. Added 3 ul/well, spin 1000 rpm for 1 min and mixed on shaker for 30 sec, put on ice for 30 mins. Stop stimulation after 30 minutes with 70 uL of prewarmed 1× fix/lysis buffer and use Feliex mate to resuspend (15 times, change tips for each plate) and incubate at 37 C for 10 minutes.
Centrifuge at 2000 rpm for 5 minutes aspirate with HCS plate washer, mix on shaker for 30 sec and then wash with 70 uL in dPBS and pelleted 2×s (2000 rpm for 5 min) and 50 ul wash in FACS buffer pelleted 1×s (2000 rpm for 5 min). Mix on shaker for 30 sec. For Intracellular markers staining (MX-1): Add 50 ul of BD Perm buffer III and mix on shaker for 30 sec. Incubate on ice for 30 minutes (in the dark). Wash with 50 uL of FACS buffer 2× (spin @2300 rpm×5 min after perm) followed by mixing on shaker for 30 sec. Resuspended in 20 ul of FACS buffer containing MX1 antibody ( )(4812)-Alexa 647: Novus Biologicals #NBP2-43704AF647) 20 ul FACS bf+0.8 ul hIgG+0.04 ul MX-1. Spin 1000 rpm for 1 min, mix on shaker for 30 se and the samples were incubated at RT in the dark for 45 minutes followed by washing 2×FACS buffer (spin @2300 rpm×5 min after perm). Resuspend 20 ul (35 uL total per well) of FACS buffer and cover with foil and place in 4° C. to read the following day. Plates were read on iQuePlus. The results were loaded into toolset and […] curves are generated in curve master. The y-axis 100% is set to 1 uM of resiquimod.

For a further assay, the target named is T1, human TLR7 (Homo sapiens, UniProt Q9NYK1).
T1 construct: host or cells: HEK-Blue TLR7 cells (engineered human embryonic kidney cells)
T1 sequence (Q9NYK1 27-1049): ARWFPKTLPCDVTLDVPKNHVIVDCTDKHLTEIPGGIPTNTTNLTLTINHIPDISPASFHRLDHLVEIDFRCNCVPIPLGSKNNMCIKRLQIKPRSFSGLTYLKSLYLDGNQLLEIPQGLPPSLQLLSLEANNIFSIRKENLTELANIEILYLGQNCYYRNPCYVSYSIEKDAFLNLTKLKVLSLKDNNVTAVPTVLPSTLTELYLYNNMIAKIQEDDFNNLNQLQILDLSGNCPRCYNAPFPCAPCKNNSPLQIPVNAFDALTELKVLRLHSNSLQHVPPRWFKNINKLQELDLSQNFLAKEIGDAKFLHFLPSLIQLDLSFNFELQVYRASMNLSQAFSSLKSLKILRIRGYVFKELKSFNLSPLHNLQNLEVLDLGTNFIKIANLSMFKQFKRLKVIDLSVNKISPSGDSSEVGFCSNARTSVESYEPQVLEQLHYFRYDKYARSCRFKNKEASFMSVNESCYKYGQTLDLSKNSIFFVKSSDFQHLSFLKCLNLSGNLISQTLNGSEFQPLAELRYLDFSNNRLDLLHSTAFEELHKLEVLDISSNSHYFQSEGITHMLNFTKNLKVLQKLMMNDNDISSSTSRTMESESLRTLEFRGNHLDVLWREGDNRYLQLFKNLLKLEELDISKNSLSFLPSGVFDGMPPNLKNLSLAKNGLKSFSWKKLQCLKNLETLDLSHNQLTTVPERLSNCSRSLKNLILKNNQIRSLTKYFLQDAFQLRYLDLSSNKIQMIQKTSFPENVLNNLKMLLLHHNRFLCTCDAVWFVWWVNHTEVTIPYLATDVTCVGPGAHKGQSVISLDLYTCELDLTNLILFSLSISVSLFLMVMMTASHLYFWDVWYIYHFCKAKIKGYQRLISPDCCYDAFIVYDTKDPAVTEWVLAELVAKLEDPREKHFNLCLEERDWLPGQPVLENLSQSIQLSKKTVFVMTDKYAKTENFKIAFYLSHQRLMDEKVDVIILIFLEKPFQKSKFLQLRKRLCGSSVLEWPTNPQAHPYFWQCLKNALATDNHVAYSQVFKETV
The assay is described as follows: Human TLR7 agonist activity reporter assay (HEK-Blue TLR7 cells, SEAP reporter). It is filed as cell-based. The following applies: 18 h treatment, average where assay was performed multiple times, read-out: hTLR7 Agonism EC50. On the procedure: This procedure describes a method for assaying human TLR7 (hTLR7) agonist activity of the compounds disclosed in this specification.
HEK-Blue™ TLR7 cells were added to each well of a 384-well tissue-culture plate (15,000 cells per well) and incubated 16-18 h at 37° C., 5% CO2. Compounds (100 nl) were dispensed into wells containing the HEK-Blue™ TLR cells and the treated cells were incubated at 37° C., 5% CO2. After 18 h treatment ten microliters of freshly-prepared Quanti-Blue™ reagent (Invivogen) was added to each well, incubated for 30 min (37° C., 5% CO2) and SEAP levels measured using an Envision plate reader (OD=620 nm). The half maximal effective concentration values (EC50; compound concentration which induced a response halfway between the assay baseline and maximum) were calculated.

With `CCCCNc1nc(N)nc2c(-c3cccnc3)nn(Cc3ccc(CNC4CCOCC4)cc3OC)c12` [Compound 114, N7-butyl-1-[(2-methoxy-4-{[(oxan-4-yl)amino]methyl}-phenyl)methyl]-3-(pyridin-3-yl)-1H-pyrazolo[4,3-d]pyrimidine-5,7-diamine], the EC50 with CD69 stood at 42.7 nM; at human TLR7 it was 291 nM.
Consider `CCCCNc1nc(N)nc2c(OC)nn(Cc3ccc(CNC4CCOCC4)cc3OC)c12` [Compound 115, N7-butyl-3-methoxy-1-[(2-methoxy-4-{[(oxan-4-yl)amino]methyl}phenyl)-methyl]-1H-pyrazolo[4,3-d]pyrimidine-5,7-diamine], for which the EC50 turned out to be 8.1 nM in the assay on CD69 and 40.1 nM at human TLR7.
The like results for `CCCCNc1nc(N)nc2c(-c3cc[nH]n3)nn(Cc3ccc(CNC4CCOCC4)cc3OC)c12` [Compound 116, N7-butyl-1-[(2-methoxy-4-{[(oxan-4-yl)amino]methyl}-phenyl)methyl]-3-(1H-pyrazol-3-yl)-1H-pyrazolo[4,3-d]pyrimidine-5,7-diamine] were, in that order, 709 nM and 1430 nM.
The like results for `CCCCNc1nc(N)nc2c(CO)nn(Cc3ccc(CNC4CCOCC4)cc3OC)c12` [Compound 118, [5-amino-7-(butylamino)-1-[(2-methoxy-4-{[(oxan-4-yl)amino]methyl}phenyl)-methyl]-1H-pyrazolo[4,3-d]pyrimidin-3-yl]methanol] were, in that order, 252 nM and 594 nM.
For `CCCCNc1nc(N)nc2c(CO)nn(Cc3ccc(CN4CCN(CCO)CC4)cc3OC)c12` [Compound 119, 2-{4-[(4-{[5-amino-7-(butyl-amino)-3-(hydroxymethyl)-1H-pyrazolo[4,3-d]pyrimidin-l-yl]methyl}-3-methoxy-phenyl)methyl]piperazin-1-yl}ethan-1-ol] the same measures were 177 nM and 433 nM.
With `CCCCNc1nc(N)nc2c(CO)nn(Cc3ccc(CN4CC(OC)C4)cc3OC)c12` [Compound 120, [5-amino-7-(butylamino)-1-({2-methoxy-4-[(3-methoxy-azetidin-1-yl)methyl]phenyl}-methyl)-1H-pyrazolo[4,3-d]pyrimidin-3-yl]methanol], the EC50 is 199 nM in the assay with CD69 and 334 nM on human TLR7.
The like results for `CCCCNc1nc(N)nc2c(C3=CCOC3)nn(Cc3ccc(CNC4CCOCC4)cc3OC)c12` [Compound 121, N7-butyl-3-(2,5-dihydro-furan-3-yl)-1-[(2-methoxy-4-{[(oxan-4-yl)amino]methyl}-phenyl)methyl]-1H-pyrazolo[4,3-d]pyrimidine-5,7-diamine] were, in that order, 640 nM and 1560 nM.
The like results for `CCCCNc1nc(N)nc2c(CC)nn(Cc3ccc(CNC4CCOCC4)cc3OC)c12` [Compound 122, N7-butyl-3-ethyl-1-[(2-methoxy-4-{[(oxan-4-yl)amino]methyl}phenyl)-methyl]-1H-pyrazolo[4,3-d]pyrimidine-5,7-diamine] were, in that order, 88.7 nM and 203 nM.
The like results for `CCCCNc1nc(N)nc2c(C(C)C)nn(Cc3ccc(CNC4CCOCC4)cc3OC)c12` [Compound 123, N7-butyl-1-[(2-methoxy-4-{[(oxan-4-yl)amino]methyl}-phenyl)methyl]-3-(propan-2-yl)-1H-pyrazolo[4,3-d]pyrimidine-5,7-diamine] were, in that order, 418 nM and 1040 nM.
Consider `CCCCNc1nc(N)nc2c(C3CCOC3)nn(Cc3ccc(CNC4CCOCC4)cc3OC)c12` (centres unmarked) [Compound 124, N7-butyl-1-[(2-methoxy-4-{[(oxan-4-yl)amino]methyl}-phenyl)methyl]-3-(oxolan-3-yl)-1H-pyrazolo[4,3-d]pyrimidine-5,7-diamine], for which the EC50 with CD69 was determined as 339 nM; at human TLR7, 798 nM.
For `CCC[C@@H](CO)Nc1nc(N)nc2c(C)nn(Cc3ccc(CN4CCN(CCO)CC4)cc3OC)c12` [Compound 125, (2S)-2-({5-amino-1-[(4-{[4-(2-hydroxyethyl)piperazin-1-yl]methyl}-2-methoxy-phenyl)methyl]-3-methyl-1H-pyrazolo[4,3-d]pyrimidin-7-yl}amino)pentan-1-ol] the same measures were 237 nM and 236 nM.
On to `CCC[C@@H](CCO)Nc1nc(N)nc2c(C)nn(Cc3ccc(CO)cc3OC)c12` [Compound 126, (3S)-3-[(5-amino-1-{[4-(hydroxymethyl)-2-methoxyphenyl]methyl}-3-methyl-1H-pyrazolo[4,3-d]pyrimidin-7-yl)amino]hexan-1-ol], for which the results for the EC50 in the assay with CD69 and on human TLR7 were 90.2 nM and 63.4 nM, respectively.
For `CCC[C@@H](CCO)Nc1nc(N)nc2c(C)nn(Cc3ccc(CNC4CCOCC4)cc3OC)c12` [Compound 127, (3S)-3-({5-amino-1-[(2-methoxy-4-{[(oxan-4-yl)amino]methyl}phenyl)-methyl]-3-methyl-1H-pyrazolo[4,3-d]pyrimidin-7-yl}amino)hexan-1-ol] the same measures were 2.7 nM and 21.8 nM.
In the case of `CCC[C@@H](CCO)Nc1nc(N)nc2c(C)nn(Cc3ccc(CN4CCN(CCO)CC4)cc3OC)c12` [Compound 128, (3S)-3-({5-amino-1-[(4-{[4-(2-hydroxyethyl)piperazin-1-yl]methyl}-2-methoxy-phenyl)methyl]-3-methyl-1H-pyrazolo[4,3-d]pyrimidin-7-yl}amino)hexan-1-ol], the results for the concentration for a half-maximal effect (EC50) in the assay with CD69 and on human TLR7 were 1.2 nM and 7.2 nM, respectively.
For `CCC[C@@H](CCO)Nc1nc(N)nc2c(C)nn(Cc3ccc(CN4CCN(C)CC4)cc3OC)c12` [Compound 129, (3S)-3-{[5-amino-1-({2-methoxy-4-[(4-methyl-piperazin-1-yl)methyl]-phenyl}methyl)-3-methyl-1H-pyrazolo[4,3-d]pyrimidin-7-yl]amino}hexan-1-ol] the same measures were 3.5 nM and 5.93 nM.
For `CCC[C@@H](CCO)Nc1nc(N)nc2c(C)nn(Cc3ccc(CN[C@@H]4CCCOC4)cc3OC)c12` [Compound 130, (3S)-3-[(5-amino-1-{[2-methoxy-4-({[(3R)-oxan-3-yl]amino}methyl)phenyl]-methyl}-3-methyl-1H-pyrazolo[4,3-d]pyrimidin-7-yl)amino]hexan-1-ol] the same measures were 7.5 nM and 93.8 nM.
